The values that follow come from patent US8465939B2, “Aging-related circulating particle-associated lipoprotein B oxidase (apoBNOX) and inhibitors thereof” (Nox Technologies, Inc., priority 2010, dated 2013).

“Also recorded” adds a separate entry of the source.

The test system of series [1] is apoBNOX. Briefly: superoxide dismutase-resistant apoBNOX activity by ferricytochrome c reduction. The class given is biochemical. As to conditions: for inhibition of apoBNOX: apoBNOX associated with lipoprotein particles. As for the experimental part: Reduction of ferricytochrome c by superoxide was employed as the measure of superoxide dismutase-resistant apoBNOX activity (Mayo, L. A. and Curnutte, J., 1990, Meth. Enzyme. 186: 567-575; Butler, J. et al., 1982, J. Biol. Chem. 257: 10747-10750). The assay consists of 150 μl buffy coats in PBSG buffer (8.06 g NaCl, 0.2 g KCl, 0.18 g Na2HPO4, 0.13 g CaCl2, 0.1 MgCl2, 1.35 g glucose dissolved in 1000 ml deionized water, adjusted to pH 7.4, filtered and stored at 4° C.). Rates were determined using an SLM Aminco DW-2000 spectrophotometer (Milton Roy, Rochester, N.Y.) in the dual wave length mode of operation with continuous measurements over 1 min every 1.5 min. After 45 min, test compounds were added and the reaction was continued for an additional 45 min. After 45 min, a millimolar extinction coefficient of […] was used for reduced ferricytochrome c.
arNOX activity was assayed from measurements of superoxide production based on a standard method where reduction of ferricytochrome c was monitored from the increase in absorbance at 550 nm with reference at 540 nm (Butler et al., 1982). As a further check for the specificity of the apoBNOX activity, 60 units of superoxide dismutase (SOD) were added near the end of the assay to ascertain that the rate returned to base line. Rates were determined over 1 min at intervals of 1.5 min using a SLM Aminco DW 2000 spectrophotometer (Milton Roy, Rochester, N.Y.) in the dual wavelength mode of operation. An extinction coefficient of 19.1 mM^−1 cm^−1 was used for reduced ferricytochrome c.

Series [2] concerns arNOX. As to conditions: cited from earlier work.
Series [3] has as its target T1, recombinant arNOX SF2 (Homo sapiens, UniProt Q99805, F637E).
T1 construct: made in house; host or cells: Escherichia coli BL21 (DE3), pET11a
Briefly: Lipid oxidation catalyzed by H2O2 formed from recombinant arNOX-generated superoxide (SF2). The class given is biochemical. As to conditions: SF2 + lecithin + SOD + inhibitor, incubated 2 h; without inhibitor 0.12, without SOD 0.06. From the text:
FIG. 4 illustrates the role of apoBNOX in the oxidation of the apoB protein associated with low density lipoprotein particles and the recognition of the oxidized LDL by macrophages, resulting in the formation of foam cells leading to fatty streaks and atherogenic plaques. In this scheme, the apoBNOX binds selectively to lipoprotein particle-associated apoB and withdraws electrons to form superoxide. The superoxide thus generated is converted to hydrogen peroxide by the action of superoxide dismutase. The hydrogen peroxide thus generated attacks lipids (particularly phosphatidylcholine) of the low density lipoprotein particles to form reactive lipid peroxides that then attack key lysine residues in the apoB. Evidence that superoxide generated by arNOX when converted to hydrogen peroxide is capable of oxidizing phosphatidylcholine is given by the data of Table 2.

Series [4] can be described thus: Hydrophilicity / solubility. It counts as physicochemical. From the text:
(§1) This last characteristic might be problematic if hydroxytyrosol or tyrosol are pretended to be used in fat-based food products or supplements. Oxidation of hydroxytyrosol and tyrosol clearly affect the stability and preservation of both compounds. The hydroxytyrosol and tyrosol derivatives presented in this invention avoid these two problems. The hydroxyl groups on these derivatives are protected from oxidation by preparing hydroxytyrosol or tyrosol fatty acid esters. When compared to hydroxytyrosol and tyrosol, the hydroxytyrosol and tyrosol fatty acid esters are much more resistant against oxidation. At the same time, depending on the length of the fatty acid chain of the fatty acid esters, their solubility in fat-based food products will be increased. Hydroxytyrosol or tyrosol esters with a wide range of solubilities can be prepared, from totally water-soluble hydroxytyrosol or tyrosol derivatives when acetic acid is used in the formation of the ester to totally oil-soluble hydroxytyrosol or tyrosol derivatives when oleic acid is used in the formation of the ester. The hydroxytyrosol and tyrosol derivatives are hydrolyse in the intestinal tract of rats to their two components, hydroxytyrosol or tyrosol and the fatty acid. […] This implies that, after their hydrolysis, mentioned fatty acid esters can act as antioxidants to reduce or ameliorate diseases with an oxidative stress origin.

A short description of series [5]: Hydrolysis and absorption in rats. It counts as in vivo.
From the text: as §1

Series [6] can be described thus: Sensitivity to oxidation. It counts as physicochemical.
From the text: as §1

As for `COC1=C(OC)C(=O)C(C/C=C(\C)CC/C=C(\C)CC/C=C(\C)CC/C=C(\C)CC/C=C(\C)CC/C=C(\C)CC/C=C(\C)CCC=C(C)C)=C(C)C1=O` [CoQ8], in series [1], the “inhibition of apoBNOX” value is reported as “relatively ineffective”. In addition, the “inhibition of arNOX activity of aging cells” value (from here on “inhibition … of aging cells”) in series [2] is listed as “inhibited”.
For the compound `COC1=C(OC)C(=O)C(C/C=C(\C)CC/C=C(\C)CC/C=C(\C)CC/C=C(\C)CC/C=C(\C)CC/C=C(\C)CC/C=C(\C)CC/C=C(\C)CCC=C(C)C)=C(C)C1=O` [CoQ9], the “inhibition of apoBNOX” value in series [1] is given as “relatively ineffective”. Further, the “inhibition … of aging cells” value in series [2] was “inhibited”.
With `COC1=C(OC)C(=O)C(C/C=C(\C)CC/C=C(\C)CC/C=C(\C)CC/C=C(\C)CC/C=C(\C)CC/C=C(\C)CC/C=C(\C)CC/C=C(\C)CC/C=C(\C)CCC=C(C)C)=C(C)C1=O` [CoQ, coenzyme Q10], the “inhibition of apoBNOX” value is “resist inhibition” in series [1] and “relatively ineffective” in series [1] (listed as CoQ10). Besides, in series [3], the “Lipid oxidation, Relative units” value was determined as 0.06 cm. In addition, in series [2], the “inhibition … of aging cells” value is “inhibited”.
`OCCc1ccc(O)c(O)c1` [Hydroxytyrosol, hydroxytyrosol]: in series [4], the hydrophilicity / solubility result was “hydrophilic”. The absorption result in series [5] (rats, after hydrolysis of the esters, detected in plasma and cerebrospinal fluid) was “rapidly absorbed”.
`OCCc1ccc(O)cc1` [Tyrosol, 4-hydroxyphenethyl alcohol]: the “apoBNOX activity, % inhibition” value in series [1] (100 μM tyrosol) came out at 70%. The sensitivity to oxidation result in series [6] is recorded as “sensitive to oxidation”. Further, the hydrophilicity / solubility entry in series [4] is recorded as “hydrophilic”. Also, the absorption result in series [5] (rat, in vivo) was “rapidly absorbed”.
As for `O=c1cc(-c2ccc(O)cc2)oc2cc(O)cc(O)c12` [apigenin], the “inhibition of apoBNOX” value in series [1] is “resist inhibition”.
As for superoxide dismutase, the “inhibition of apoBNOX” value in series [1] is recorded as “resist inhibition; also recorded: resistant to inhibition”.
